From patent publication US20260216053A1, “COSMETIC COMPOSITION CONTAINING HOUTTUYNIA CORDATA FERMENTATION EXTRACT” (DAEBONG LS CO., LTD., priority 2022, published 2026)

What was measured:
Format in all cases: cell-based
HaCaT cells = test: Evaluation of cytotoxicity, EZ-Cytox assay; details: for HaCaT cell growth rate: versus untreated group 100%
Protocol: (§1) HaCaT cells, which are skin keratinocytes, were provided by Cell Line Service GmbH (Germany). The cells were cultured in 5% CO2 incubator at 37° C. using Dulbecco's modified Eagle's medium (DMEM) containing 1% penicillin-streptomycin and 10% fetal bovine serum (FBS). Subculturing was performed with 2-3 day intervals.
The EZ-cytox assay is a representative method for measuring cell viability that utilizes the principle that a water-soluble tetrazolium salt (WST) reacts with the dehydrogenase of living cells to produce an orange-colored, water-soluble formazan.
To examine cytotoxicity, HaCaT cells were seeded at 1.0×10^4 cells/well in a 96-well plate using DMEM medium containing 10% FBS, and cultured under the condition of 37° C. and 5% CO2 for 24 hours. After exchanging the medium with serum-free DMEM, the cultured cells were treated with a sample to be evaluated. After that, EZ-cytox was added to each well and reacted under the condition of 37° C. and 5% CO2 for 30 minutes, and then absorbance was measured at 450 nm using a microplate reader. The average absorbance value for each sample group was calculated, and this value was compared with the absorbance value of the control group to evaluate cell viability.

[1] = system: hyaluronic acid production in HaCaT cells; test: Production of moisturizing factor hyaluronic acid (HA), ELISA; details: 24 hours, supernatant, FIG. 1 and FIG. 2
Protocol: HaCaT cells, which are skin keratinocytes, were provided by Cell Line Service GmbH (Germany). The cells were cultured in 5% CO2 incubator at 37° C. using Dulbecco's modified Eagle's medium (DMEM) containing 1% penicillin-streptomycin and 10% fetal bovine serum (FBS). Subculturing was performed with 2-3 day intervals. HaCaT cells were seeded at 1.0×10^5 cells/well in a 24-well plate and cultured for 24 hours under the condition of 37° C. and 5% CO2. After the cultured cell medium was replaced with serum-free DMEM, a sample was treated at different concentrations and the cells were cultured for 24 hours. Afterwards, the supernatant from each test group was collected and the amount of hyaluronic acid (HA) produced in the medium was measured. A control group was treated with N-acetylglucosamine at a concentration of 10 mM. The measurement of hyaluronic acid production was performed using the Hyaluronan Quantikine ELISA kit (R&D Systems) according to the method provided by the manufacturer.

[2] = system: filaggrin production in HaCaT cells; test: Production of moisturizing factor filaggrin (FLG), ELISA; details: 24 hours, cell lysate, FIG. 3 and FIG. 4
Protocol: as §1
HaCaT cells were seeded at 1.0×10^5 cells/well in a 24-well plate and cultured for 24 hours under the condition of 37° C. and 5% CO2. After the cultured cell medium was replaced with serum-free DMEM, a sample was treated at different concentrations and the cells were cultured for 24 hours. Afterwards, the cells of each test group were lysed and proteins were collected. Then, the amount of filaggrin produced in the culture medium extract was measured. The measurement of filaggrin production was performed using the Filaggrin ELISA kit (Cusabio Biotechnology Co., Ltd) according to the method provided by the manufacturer. The result of measuring the amount of filaggrin produced depending on the quercetin treatment is shown in FIG. 3, and the result of measuring the amount of filaggrin produced depending on the treatment with the extracts of the example and comparative example is shown in FIG. 4.

Structure (SMILES): O=c1c(O)c(-c2ccc(O)c(O)c2)oc2cc(O)cc(O)c12 [Quercetin, quercetin]
- HaCaT cell growth rate (HaCaT cells; 25 μM): 104.3 ± 1.3%
- HaCaT cell growth rate (HaCaT cells; 50 μM): 105.9 ± 1.0%
- HaCaT cell growth rate (HaCaT cells; 100 μM): 109.4 ± 2.1%
- HaCaT cell growth rate (HaCaT cells; 200 μM): 92.8 ± 2.8%
- Cytotoxicity for the skin keratinocytes (HaCaT cells; HaCaT cells, tested concentrations of Table 2): none of the example, comparative example or quercetin exhibited cytotoxicity
- Production of hyaluronic acid [1]: promoted the production of the moisturizing factor hyaluronic acid
- Production of filaggrin [2]: promoted the production of the moisturizing factor filaggrin
